In patent publication US20070202116A1, “Treatment of micro-organism infection” (priority 2001, published 2007):
Where two headings read alike, the source gives them in different places.

Columns and labels:
EMRSA-15 [1] = format: in vivo, S. aureus; settings: Group 3: Vancomycin 6 mg/kg alone iv
Experimental: Methods: 60 female CD-1 mice (22-24 g) were given 1×10^7 cfu of EMRSA-15 as a 100 μl iv bolus.
All mice were terminated at 48 hours for culture of kidney, liver and spleen.
Results: expressed as log cfu per gram of tissue, unless the majority of mice (>5) were cleared (ie organs were culture-negative). N/A=not applicable. (Table 7)

EMRSA-15 [2] = format: in vivo, S. aureus; settings: for Survivors at 24 h (n = 10): 8×10^7 cfu; for Mortality: 10 mice
Experimental: Method: 60 female CD-I mice (22-24 g) were given S. aureus (a fresh clinical isolate of EMRSA-15) at a dose of 8×10^7 cfu in a 100 μl iv bolus.
All mice were terminated at 48 hours for culture of kidney, liver and spleen. Mice fatalities prior to the 48 hour cull were not subject to organ colony counts.

[3] = test system: EMRSA strains, vancomycin resistant subpopulations, Linzolid resistant strains; assay: Checkerboard MIC / FIC / FIX of vancomycin and Aurograb (Tables 9, 10); format: cell-based, S. aureus; settings: for MIC In combination: VAN with Aurograb; for MIC: Staphylococcus aureus
Experimental: In order to determine the Minimum Inhibitory Concentration (MIC), the Fractional Inhibitory Concentration (FIC) and the FIX (fractional inhibitory index), the following was method was used.
The cells were diluted in Isosensitest Broth (Oxoid, UK) to give a final inoculum of […] cells per mL. […] To this was added exogenous Aurograb in the range 0.3-25 μg/ml in a checkerboard formation. A negative control series was also prepared containing Aurograb formulation buffer alone. Cultures were incubated for 48 hours at 37° C.
The minimum inhibitory concentration (MIC) was defined as the lowest concentration of agent at which no bacterial growth occurred and was determined by spectrophotometric evaluation of the lack of turbidity (growth) in culture.
Fractional inhibitory concentrations (FIC) and FIX values were calculated. Synergistic activity between the two agents was defined as an FIX value ≦0.5. Indifferent activity was defined as a value of 0.5-4, and a value of ≧4 defined antagonism.
The MIC (Alone) column indicates the minimum inhibitory concentration of the agent when administered alone. The MIC (In combination) column indicates the minimum inhibitory concentration of each drug when used in combination.

CN[C@H](CC(C)C)C(=O)N[C@H]1C(=O)N[C@@H](CC(N)=O)C(=O)N[C@H]2C(=O)N[C@H]3C(=O)N[C@H](C(=O)N[C@H](C(=O)O)c4cc(O)cc(O)c4-c4cc3ccc4O)[C@H](O)c3ccc(c(Cl)c3)Oc3cc2cc(c3O[C@@H]2O[C@H](CO)[C@@H](O)[C@H](O)[C@H]2O[C@H]2C[C@](C)(N)[C@H](O)[C@H](C)O2)Oc2ccc(cc2Cl)[C@H]1O [Vancomycin, vancomycin]
Liver, number of mice cleared (EMRSA-15 [1]; 10 mice): N/A (8 clear) | Spleen, number of mice cleared (EMRSA-15 [1]; 10 mice): 5 | Liver, number of mice cleared (EMRSA-15 [1]; 10 mice, listed as vancomycin): 8 | Kidney Log cfu/g of tissue (EMRSA-15 [1]; 48 hours): 6.53 ± 1.53 Log cfu/g of tissue | Survivors at 24 h (n = 10) (EMRSA-15 [2]; Group 2: Vancomycin 4.0 mg/kg alone iv): 4 | Survivors at 24 h (n = 10) (EMRSA-15 [2]; Group 4: Vancomycin 2.0 mg/kg alone iv): 5 | Mortality (EMRSA-15 [2]; vancomycin alone 2.0 mg/kg): 5 deaths | Mortality (EMRSA-15 [2]; vancomycin alone 4.0 mg/kg): 6 deaths | MIC In combination ([3]; EMRSA strain 1): 0.03 µg/mL | MIC In combination ([3]; EMRSA strain 1A): 1 µg/mL | MIC In combination ([3]; EMRSA strain 2): 0.03 µg/mL | MIC In combination ([3]; EMRSA strain 2A): 1 µg/mL | MIC In combination ([3]; EMRSA strain 3): 0.03 µg/mL | MIC In combination ([3]; EMRSA strain 4): 0.03 µg/mL | MIC In combination ([3]; EMRSA strain 5): 0.03 µg/mL | MIC In combination ([3]; EMRSA strain 6): 0.125 µg/mL | MIC In combination ([3]; EMRSA strain 7): 0.03 µg/mL | MIC In combination ([3]; EMRSA strain 8): 0.03 µg/mL | MIC In combination ([3]; EMRSA strain 8A): 0.03 µg/mL | MIC In combination ([3]; EMRSA strain 9): 0.0125 µg/mL | MIC In combination ([3]; EMRSA strain 10): 0.03 µg/mL | MIC In combination ([3]; EMRSA strain 11): 0.03 µg/mL | MIC In combination ([3]; EMRSA strain 11A): 1 µg/mL | MIC In combination ([3]; EMRSA strain 12): 0.03 µg/mL | MIC In combination ([3]; EMRSA strain 12A): 0.03 µg/mL | MIC In combination ([3]; EMRSA strain 13): 0.03 µg/mL | MIC In combination ([3]; EMRSA strain 14): 0.03 µg/mL | MIC In combination ([3]; EMRSA strain 15): 0.03 µg/mL | MIC In combination ([3]; EMRSA strain 15A): 0.03 µg/mL | MIC In combination ([3]; EMRSA strain 16): 0.03 µg/mL | MIC In combination ([3]; EMRSA strain 17): 1 µg/mL | MIC In combination ([3]; NARSA 1 (Hiramatsu)): 2 µg/mL | MIC In combination ([3]; NARSA 2 (Hiramatsu)): 0.5 µg/mL | MIC In combination ([3]; NARSA 12 (France)): 1 µg/mL | MIC In combination ([3]; NARSA 17 (New York)): 2 µg/mL | MIC In combination ([3]; NARSA 119 (Linezolid R)): 1 µg/mL | MIC In combination ([3]; NARSA 120 (Linezolid R)): 1 µg/mL | MIC In combination ([3]; NARSA 121 (Linezolid R)): 1 µg/mL | MIC ([3]; read-out: MIC Alone, EMRSA strain 1): 0.5 µg/mL | MIC ([3]; read-out: MIC Alone, EMRSA strain 1A): 8 µg/mL | MIC ([3]; read-out: MIC Alone, EMRSA strain 2): 0.5 µg/mL | MIC ([3]; read-out: MIC Alone, EMRSA strain 2A): 8 µg/mL | MIC ([3]; read-out: MIC Alone, EMRSA strain 3): 0.5 µg/mL | MIC ([3]; read-out: MIC Alone, EMRSA strain 4): 0.5 µg/mL | MIC ([3]; read-out: MIC Alone, EMRSA strain 5): 0.5 µg/mL | MIC ([3]; read-out: MIC Alone, EMRSA strain 6): 0.5 µg/mL | MIC ([3]; read-out: MIC Alone, EMRSA strain 7): 0.5 µg/mL | MIC ([3]; read-out: MIC Alone, EMRSA strain 8): 0.5 µg/mL | MIC ([3]; read-out: MIC Alone, EMRSA strain 8A): 0.5 µg/mL | MIC ([3]; read-out: MIC Alone, EMRSA strain 9): 0.5 µg/mL | MIC ([3]; read-out: MIC Alone, EMRSA strain 10): 0.5 µg/mL | MIC ([3]; read-out: MIC Alone, EMRSA strain 11): 0.5 µg/mL | MIC ([3]; read-out: MIC Alone, EMRSA strain 11A): 4 µg/mL | MIC ([3]; read-out: MIC Alone, EMRSA strain 12): 0.5 µg/mL | MIC ([3]; read-out: MIC Alone, EMRSA strain 12A): 0.5 µg/mL | MIC ([3]; read-out: MIC Alone, EMRSA strain 13): 0.5 µg/mL | MIC ([3]; read-out: MIC Alone, EMRSA strain 14): 0.5 µg/mL | MIC ([3]; read-out: MIC Alone, EMRSA strain 15): 0.5 µg/mL | MIC ([3]; read-out: MIC Alone, EMRSA strain 15A): 0.5 µg/mL | MIC ([3]; read-out: MIC Alone, EMRSA strain 16): 0.5 µg/mL | MIC ([3]; read-out: MIC Alone, EMRSA strain 17): 4 µg/mL | MIC ([3]; read-out: MIC Alone, NARSA 1 (Hiramatsu)): 8 µg/mL | MIC ([3]; read-out: MIC Alone, NARSA 2 (Hiramatsu)): 3 µg/mL | MIC ([3]; read-out: MIC Alone, NARSA 12 (France)): 8 µg/mL | MIC ([3]; read-out: MIC Alone, NARSA 17 (New York)): 8 µg/mL | MIC ([3]; read-out: MIC Alone, NARSA 119 (Linezolid R)): 4 µg/mL | MIC ([3]; read-out: MIC Alone, NARSA 120 (Linezolid R)): 4 µg/mL | MIC ([3]; read-out: MIC Alone, NARSA 121 (Linezolid R)): 4 µg/mL
